This note sets out measurements from ChEMBL document CHEMBL5465560, “Selectivity Literature for EUbOPEN Chemogenomic Library” (2024).

Where a chain is given by its changes, count along the chain named.

Test [1] deals with N-lysine methyltransferase SMYD2 (Homo sapiens) (UniProt Q9NRG4). Conditions: at 10 µM.
Test [2] has as its system T1, Receptor-type tyrosine-protein kinase FLT3 (Homo sapiens), P36888 [D835Y].
T1 sequence (whole entry): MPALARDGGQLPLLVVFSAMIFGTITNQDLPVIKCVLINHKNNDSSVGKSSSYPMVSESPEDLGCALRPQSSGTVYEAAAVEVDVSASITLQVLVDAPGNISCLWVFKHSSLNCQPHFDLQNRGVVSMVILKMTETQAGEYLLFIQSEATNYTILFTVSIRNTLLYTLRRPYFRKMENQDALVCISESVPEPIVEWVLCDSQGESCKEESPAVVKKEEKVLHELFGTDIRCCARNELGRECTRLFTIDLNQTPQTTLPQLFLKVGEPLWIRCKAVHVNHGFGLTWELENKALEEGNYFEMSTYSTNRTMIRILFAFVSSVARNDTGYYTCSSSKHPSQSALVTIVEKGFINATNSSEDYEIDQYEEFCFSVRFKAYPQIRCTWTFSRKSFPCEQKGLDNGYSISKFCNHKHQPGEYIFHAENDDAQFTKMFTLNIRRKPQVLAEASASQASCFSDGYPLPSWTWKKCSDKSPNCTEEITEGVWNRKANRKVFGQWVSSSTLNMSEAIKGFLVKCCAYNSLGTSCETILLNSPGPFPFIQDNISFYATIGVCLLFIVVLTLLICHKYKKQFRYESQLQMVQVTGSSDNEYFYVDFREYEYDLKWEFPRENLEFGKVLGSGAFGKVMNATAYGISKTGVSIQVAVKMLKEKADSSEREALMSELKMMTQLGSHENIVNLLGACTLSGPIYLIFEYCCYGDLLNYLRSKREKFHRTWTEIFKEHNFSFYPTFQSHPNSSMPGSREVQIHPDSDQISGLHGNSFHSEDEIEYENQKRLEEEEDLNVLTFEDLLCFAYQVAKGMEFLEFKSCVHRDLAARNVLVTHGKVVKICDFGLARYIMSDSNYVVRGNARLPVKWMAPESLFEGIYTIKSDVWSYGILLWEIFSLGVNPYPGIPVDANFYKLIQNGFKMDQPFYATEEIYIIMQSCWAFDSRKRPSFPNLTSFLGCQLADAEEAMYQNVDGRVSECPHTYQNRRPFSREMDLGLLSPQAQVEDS
The test can be described thus: (§1) Selectivity interaction (KinomeScan (DiscoverX)) EUB0000229b FLT3. Conditions: at 1 µM.

Test [3] concerns T2, Receptor-type tyrosine-protein kinase FLT3 (Homo sapiens), P36888 [K663Q].
T2 sequence (whole entry): T1 sequence (whole entry) with K663Q, Y835D
The description is as §1. The note with it: at 1 µM.

The test system of test [4] is T3, Receptor-type tyrosine-protein kinase FLT3 (Homo sapiens), P36888 [R834Q].
T3 sequence (whole entry): T1 sequence (whole entry) with R834Q, Y835D
The description is as §1. The note with it: at 1 µM.

Test [5] deals with Receptor-type tyrosine-protein kinase FLT3 (Homo sapiens) (UniProt P36888). Described as §1. The note with it: at 10 µM.

N-lysine methyltransferase SMYD2 (Homo sapiens), sequence (Q9NRG4 whole entry): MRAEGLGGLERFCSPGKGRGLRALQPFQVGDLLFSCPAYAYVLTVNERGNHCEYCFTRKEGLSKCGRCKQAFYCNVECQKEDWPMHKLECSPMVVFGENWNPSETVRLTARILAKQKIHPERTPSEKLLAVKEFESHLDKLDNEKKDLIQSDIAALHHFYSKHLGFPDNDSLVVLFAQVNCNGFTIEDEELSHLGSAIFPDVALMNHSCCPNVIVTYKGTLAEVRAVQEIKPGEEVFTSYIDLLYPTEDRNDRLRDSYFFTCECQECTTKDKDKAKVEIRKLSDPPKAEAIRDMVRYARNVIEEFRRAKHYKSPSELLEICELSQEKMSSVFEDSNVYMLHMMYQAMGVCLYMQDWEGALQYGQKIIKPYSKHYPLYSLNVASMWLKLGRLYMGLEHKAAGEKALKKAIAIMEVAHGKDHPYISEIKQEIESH

`CNCCN1CCC(c2cc(CN(C)C(=O)c3cccc(Oc4ccccc4)c3)ccn2)CC1` gave a % activity in test [1] of over 90%.
Regarding `COc1cc(N(C)c2ccnc3ccc(C(F)(F)F)cc23)cc(OC)c1OC`, the % binding in test [2] turned out to be 69%; in test [3], 76%; in test [4] it was 100%; in test [5], 78%.
